Reference: paper PMC6468747 (Cancers, 2019)

Assays:
[1] = test system: MDA-MB-231 tumor xenografts; test: MDA-MB-231 cell-line derived xenograft (CDX), IP dose study; assay type: in vivo, athymic nude mice; conditions: for tumor growth inhibition (TGI): 5 days a week, 4 weeks
Description: Female athymic nude (Jackson Laboratory, Bar Harbor, Maine, USA) 5–6 weeks of age were housed under complete aseptic conditions, fed autoclaved pellets and sterile water ad libitum. Following a week of acclimatization, approximately 1 × 10^6 MDA-MB-231 cells were inoculated into both flanks for MDA-MB-231 derived xenograft tumors. Tumor-bearing mice (tumor volume around 90–110 mm^3) were randomized into various treatment groups (5 mice in each group; compounds formulated in vehicle) and treated as follows: (i) vehicle control (40% β-cyclodextrin in ddH2O, IP), (ii) VNLG-152R (5 mg/kg, IP, once daily), (iii) VNLG-152 (10 mg/kg, IP, once daily) and (iv) VNLG-152 (20 mg/kg, IP, once daily) 5 days/week for 29 days. Tumors were measured twice weekly with calipers and tumor volume was calculated by the formula: […] (mm^3). Animals were also weighed weekly and monitored for general health status and signs of possible toxicity due to treatments. Mice were sacrificed after the indicated periods of treatment and tumors and organs excised. Tumors were divided and either flash frozen in liquid nitrogen or placed in 10% buffered formalin for western blot analysis, immunohistochemistry (IHC), and hematoxylin and eosin (H & E) staining. It is important to state here that the control was part of a large study with our other retinamides whose data has already been reported.
Western blotting of tumor tissue lysates was performed according to standard protocol. Briefly, 30–50 μg protein per lysate was denatured with 2× sample buffer and resolved on 12 or 16% Tris–glycine gels by sodium dodecyl sulfate–polyacrylamide gel electrophoresis. Separated proteins were transferred onto nitrocellulose membrane by western blotting, and membrane was blocked for 1 h in blocking buffer and then incubated with specific primary antibodies (1:1000 dilution), followed by peroxidase-conjugated appropriate secondary antibody (1:3000 dilution). Finally, proteins were visualized by enhanced chemiluminescence detection and exposure to X-ray film. To confirm equal protein loading, membranes were stripped and re-probed with mouse monoclonal anti-β-actin primary antibody (Sigma).

[2] = 14-day oral toxicity / MTD study; set-up: species or system female athymic nude mice; conditions: female, athymic nude, mouse, in vivo; oral, 14 days, estimated; read-out: maximum tolerated dose (MTD)
Description: Three different doses, i.e., 10, 25, and 50 mg/kg/day (formulated in 40% β-cyclodextrin in saline) of each compound were administered daily by oral gavage for 14 days. Each group consisted of 3 mice. Their body weight kinetics (loss in body weight, a clinical sign of toxicity) was observed during the 14 days of dosing following established procedures. Changes in body weight were scored on a scale of 0–4 as follows: (1) Weight loss: (10 g = 4, 7–9 g = 3, 4–6 g = 2, 1–3 g = 1; severe = 3, moderate = 2, slight = 1, none = 0).

Br-001 tumor xenografts = test: Patient-derived TNBC xenograft (PDX), IP; assay type: in vivo, mice; conditions: 10 mg/kg/day IP
Description: Female NSG (NOD.Cg-PrkdcscidIl2rgtm1Wjl/SzJ) mice (Jackson Laboratory) 5–6 weeks of age were housed under complete aseptic conditions, fed autoclaved pellets and sterile water ad libitum. Primary triple negative breast cancer tissue from a patient in University of Maryland Medical Center ([…]) was excised during surgery, de-identified and then implanted into the mammary fat pad of female NSG mice. After expansion and viable freeze back, breast PDX (Br-001) was grown in three mice as a subcutaneous tumor. When tumors reached approximately 600–800 mm^3, mice were euthanized, tumors excised aseptically and cut into 3 mm × 3 mm pieces and re-implanted subcutaneously in female NSG mice. The established xenografts were subsequently passaged from mouse to mouse to expand xenograft numbers. […] Tumors were measured and processed as described for the MDA-MB-231 xenograft model.

eIF4F complex = test: m7GTP pull-down of eIF4F complex in TNBC cells; assay type: cell-based, human; conditions: 20 µM, 24 h, MDA-MB-231 and MDA-MB-468
Description: eIF4F complex in cell extracts was detected using affinity chromatography 7-methyl GTP (m7GTP)-Sepharose as described previously. Briefly, MDA-MB-231 treated with 20 μM VNLG-152 for 24 h were lysed in buffer containing 20 mM Tris-HCl (pH 7.4), 150 mM NaCl, 1 mM EDTA, 1 mM EGTA, 1 mM β-glycerophosphate, 1 mM Na3VO4, 1% Triton X-100, 2.5 mM sodium pyrophosphate, and protease inhibitor cocktail, on ice for 15 min. After centrifugation at 12,000× g for 15 min at 4 °C, the supernatants were collected and incubated with m7GTP-Sepharose (GE Healthcare Bio-Sciences Corp./Amersham, Piscataway, NJ, USA) at 4 °C for 2 h with constant shaking. Beads were washed three times with lysis buffer and three times with 1× Phosphate Buffered Salin, (PBS). The samples were then denatured, and the supernatants were then loaded to SDS-PAGE for immunoblotting.

CC1=C(/C=C/C(C)=C/C=C/C(C)=C/C(=O)Nc2ccc(F)cc2)C(C)(C)CCC1n1ccnc1 (racemic) [VNLG-152R, 4-(±)-(1H-imidazol-1-yl)-N-(4-fluorophenyl)-(E)-retinamide]
tumor growth inhibition (TGI) ([1]; 5 mg/kg/day IP): 91% | tumor growth inhibition (TGI) ([1]; 10 mg/kg/day IP): 97% | increase in the Bax/Bcl-2 ratio vs control ([1]; 20 mg/kg IP, tumor lysates): 470 fold | tumor growth inhibition (TGI) ([1]; 20 mg/kg/day IP): 97% | changes in body weights ([1]; 5, 10, 20 mg/kg IP): no significant changes in body weights were observed | gross organ (liver, lung and kidney) abnormalities ([1]; 5, 10, 20 mg/kg IP, H&E staining): no gross organ (liver, lung and kidney) abnormalities | expression of Mnk1, Mnk2, p-eIF4E, cyclin D1, Bcl-2, Bax and Bad in tumors ([1]; 10 or 20 mg/kg IP, western blot): significant dose-dependent suppressions of Mnk1, Mnk2, p-eIF4E, cyclin D1, Bcl-2, and up-regulation of Bax and Bad | MTD at 14 days [2]: > 50 mg/kg | changes in body weights (Br-001 tumor xenografts): No significant changes in body weights were observed | tumor growth inhibition (TGI) (Br-001 tumor xenografts; 5 days a week, 17 days): 73.3% | eIF4G and 4E-BP1 association with eIF4E (eIF4F complex): decreased eIF4G and increased eukaryotic translation initiation factor 4E-binding protein 1 (4E-BP1) association with eIF4E
